We go through seven molecules from ChEMBL document CHEMBL1128856, “Paclitaxel and docetaxel photoaffinity labels” (1995).

What all share (format): functional
Experiment [1] is described as follows: In vitro cytotoxicity against B16 melanoma cells relative to paclitaxel ED50 = 1.
A short description of experiment [2]: Ability to induce the formation of microtubules using microtubule assembly assay in vitro relative to paclitaxel ED50 = 1.
Experiment [3] can be described thus: In vitro cytotoxicity against P388 cells relative to paclitaxel ED50 = 1.

Turning to `CC(=O)O[C@@]12CO[C@@H]1C[C@H](O)[C@@]1(C)C(=O)[C@H](O)C3=C(C)[C@@H](OC(=O)[C@H](O)[C@@H](NC(=O)OC(C)(C)C)c4ccccc4)C[C@@](O)([C@@H](OC(=O)c4ccccc4)[C@H]21)C3(C)C.O.O.O` [DOCETAXEL], the Ratio came to 0.41 in experiment [1] and 0.45 in experiment [2].

In the case of `CC(=O)O[C@H]1C(=O)[C@@]2(C)[C@H]([C@H](OC(=O)c3ccccc3)[C@]3(O)C[C@H](OC(=O)[C@H](O)[C@@H](NC(=O)c4ccc(N=[N+]=[N-])cc4)c4ccccc4)C(C)=C1C3(C)C)[C@]1(OC(C)=O)CO[C@@H]1C[C@@H]2O`, the Ratio came out at 4.6 in experiment [1] and 2 in experiment [2].

For the molecule `CC(=O)O[C@H]1C(=O)[C@@]2(C)[C@H]([C@H](OC(=O)c3cccc(N=[N+]=[N-])c3)[C@]3(O)C[C@H](OC(=O)[C@H](O)[C@@H](NC(=O)OC(C)(C)C)c4ccccc4)C(C)=C1C3(C)C)[C@]1(OC(C)=O)CO[C@@H]1C[C@@H]2O`, the figures for the Ratio in experiment [1] and in experiment [2] were 0.37 and 1.2, respectively.

For the molecule `CC(=O)O[C@H]1C(=O)[C@@]2(C)[C@H]([C@H](OC(=O)c3ccccc3)[C@]3(O)C[C@H](OC(=O)[C@H](O)[C@@H](NC(=O)c4cccc(N=[N+]=[N-])c4)c4ccccc4)C(C)=C1C3(C)C)[C@]1(OC(C)=O)CO[C@@H]1C[C@@H]2O`, the Ratio was found to be 2.6 in experiment [1] and 0.81 in experiment [2].

With `CC(=O)O[C@H]1C(=O)[C@@]2(C)[C@H]([C@H](OC(=O)c3ccccc3)[C@]3(O)C[C@H](OC(=O)[C@H](O)[C@@H](NC(=O)c4cc(N=[N+]=[N-])cc([N+](=O)[O-])c4)c4ccccc4)C(C)=C1C3(C)C)[C@]1(OC(C)=O)CO[C@@H]1C[C@@H]2O`, the Ratio was 17.4 in experiment [1] and 3 in experiment [2].

Regarding `CC(=O)O[C@H]1C(=O)[C@@]2(C)[C@H]([C@H](OC(=O)c3ccccc3)[C@]3(O)C[C@H](OC(=O)[C@H](O)[C@@H](NC(=O)c4ccccc4)c4ccccc4)C(C)=C1C3(C)C)[C@]1(OC(C)=O)CO[C@@H]1C[C@@H]2O` [PACLITAXEL], the Ratio in experiment [1] and in experiment [2] was 1 each time.

Consider `CC(=O)O[C@H]1C(=O)[C@@]2(C)[C@H]([C@H](OC(=O)c3cccc(N=[N+]=[N-])c3)[C@]3(O)C[C@H](OC(=O)[C@H](O)[C@@H](NC(=O)c4ccccc4)c4ccccc4)C(C)=C1C3(C)C)[C@]1(OC(C)=O)CO[C@@H]1C[C@@H]2O`, for which the Ratio in experiment [3] is 0.08; in experiment [1] it was 0.65; in experiment [2], 0.4.
